In ChEMBL document CHEMBL1201862, “PubChem BioAssay data set” (2004):
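Test compounds were applied to cells in 96-well plates for 48 hours at 5 doses. GI50 is the concentration that inhibits growth by half.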 Active and inactive are the calls of the source. Cut-off read from the data, not from the text of the source: active = GI50 up to about 1.1 µM and inactive = higher.

Experiments:
Experiment in all cases: DTP human tumour cell line panel, 48 h
786-0 = tested on: 786-0
A498 = tested on: A498
A549 = tested on: A549
ACHN = tested on: ACHN
BT-549 = tested on: BT-549
CAKI-1 = tested on: CAKI-1
CCRF-CEM = tested on: CCRF-CEM
COLO 205 = tested on: COLO 205
DU-145 = tested on: DU-145
EKVX = tested on: EKVX
HCC 2998 = tested on: HCC 2998
HCT-116 = tested on: HCT-116
HCT-15 = tested on: HCT-15
HL-60 = tested on: HL-60
HOP-62 = tested on: HOP-62
HOP-92 = tested on: HOP-92
HT-29 = tested on: HT-29
Hs-578T = tested on: Hs-578T
IGROV-1 = tested on: IGROV-1
K562 = tested on: K562
KM12 = tested on: KM12
LOX IMVI = tested on: LOX IMVI
M14 = tested on: M14
MCF7 = tested on: MCF7
MDA-MB-231 = tested on: MDA-MB-231
MDA-MB-435 = tested on: MDA-MB-435
MDA-N = tested on: MDA-N
MOLT-4 = tested on: MOLT-4
NCI-H226 = tested on: NCI-H226
NCI-H23 = tested on: NCI-H23
NCI-H460 = tested on: NCI-H460
NCI-H522 = tested on: NCI-H522
NCI/ADR-RES = tested on: NCI/ADR-RES
OVCAR-3 = tested on: OVCAR-3
OVCAR-4 = tested on: OVCAR-4
OVCAR-5 = tested on: OVCAR-5
OVCAR-8 = tested on: OVCAR-8
PC-3 = tested on: PC-3
RPMI-8226 = tested on: RPMI-8226
RXF 393 = tested on: RXF 393
SF-268 = tested on: SF-268
SF-295 = tested on: SF-295
SF-539 = tested on: SF-539
SK-MEL-28 = tested on: SK-MEL-28
SK-MEL-2 = tested on: SK-MEL-2
SK-MEL-5 = tested on: SK-MEL-5
SK-OV-3 = tested on: SK-OV-3
SN12C = tested on: SN12C
SNB-19 = tested on: SNB-19
SNB-75 = tested on: SNB-75
SR = tested on: SR
SW-620 = tested on: SW-620
T47D = tested on: T47D
TK-10 = tested on: TK-10
U-251 = tested on: U-251
UACC-257 = tested on: UACC-257
UACC-62 = tested on: UACC-62
UO-31 = tested on: UO-31

## O=C(NO)c1ccc(OCc2cccc(Cl)c2)cc1
786-0
  GI50: 6.11 µM (inactive)
A498
  GI50: 4.81 µM (inactive)
A549
  GI50: 8.18 µM (inactive)
ACHN
  GI50: 4.57 µM (inactive)
BT-549
  GI50: 13.7 µM (inactive)
CAKI-1
  GI50: 6.65 µM (inactive)
CCRF-CEM
  GI50: 2.66 µM (inactive)
COLO 205
  GI50: 7.35 µM (inactive)
DU-145
  GI50: 7.59 µM (inactive)
EKVX
  GI50: 10.8 µM (inactive)
HCC 2998
  GI50: 5.87 µM (inactive)
HCT-116
  GI50: 2.22 µM (inactive)
HCT-15
  GI50: 4.57 µM
HL-60
  GI50: 2.47 µM (inactive)
HOP-62
  GI50: 9.1 µM (inactive)
HOP-92
  GI50: 11.9 µM (inactive)
HT-29
  GI50: 8.45 µM (inactive)
Hs-578T
  GI50: 16.2 µM (inactive)
IGROV-1
  GI50: 6.67 µM (inactive)
K562
  GI50: 7.96 µM (inactive)
KM12
  GI50: 11.9 µM (inactive)
LOX IMVI
  GI50: 5.07 µM (inactive)
M14
  GI50: 12.9 µM (inactive)
MCF7
  GI50: 12.7 µM (inactive)
MDA-MB-231
  GI50: 12.1 µM (inactive)
MDA-MB-435
  GI50: 6.67 µM (inactive)
MDA-N
  GI50: 10.1 µM (inactive)
MOLT-4
  GI50: 2.62 µM (inactive)
NCI-H226
  GI50: 11.9 µM (inactive)
NCI-H23
  GI50: 5.3 µM (inactive)
NCI-H460
  GI50: 4.58 µM (inactive)
NCI-H522
  GI50: 3.27 µM (inactive)
NCI/ADR-RES
  GI50: 2.13 µM (inactive)
OVCAR-3
  GI50: 4.55 µM (inactive)
OVCAR-4
  GI50: 8.95 µM (inactive)
OVCAR-5
  GI50: 6.15 µM (inactive)
OVCAR-8
  GI50: 3.01 µM (inactive)
PC-3
  GI50: 6.64 µM (inactive)
RPMI-8226
  GI50: 3.27 µM (inactive)
RXF 393
  GI50: 10.2 µM (inactive)
SF-268
  GI50: 10.7 µM (inactive)
SF-295
  GI50: 9.33 µM (inactive)
SF-539
  GI50: 8.11 µM (inactive)
SK-MEL-28
  GI50: 12.3 µM (inactive)
SK-MEL-2
  GI50: 12.8 µM (inactive)
SK-MEL-5
  GI50: 12.4 µM (inactive)
SK-OV-3
  GI50: 8.45 µM (inactive)
SN12C
  GI50: 8.89 µM (inactive)
SNB-19
  GI50: 24.5 µM (inactive)
SNB-75
  GI50: 9.2 µM (inactive)
SR
  GI50: 2.16 µM (inactive)
SW-620
  GI50: 5.08 µM (inactive)
T47D
  GI50: 6.97 µM (inactive)
TK-10
  GI50: 11.6 µM (inactive)
U-251
  GI50: 11.6 µM (inactive)
UACC-257
  GI50: 13.6 µM (inactive)
UACC-62
  GI50: 5.4 µM (inactive)
UO-31
  GI50: 7.43 µM (inactive)
